SMILES strings stand for the structures. In brackets after ≈: the same amount, converted by molar mass. Where two headings read alike, the source gives them in different places.

Data set [1] relates to chloroquine-resistant K1 strain of Plasmodium falciparum. In words: Activity against P. falciparum K1 strain in vitro. The format is cell-based. From the text:
(§1) Activity of 1,2,4-trioxolanes against P. falciparum in vitro.

Data set [2] has as its system chloroquine-sensitive NF54 strain of Plasmodium falciparum. In words: Activity against P. falciparum NF54 strain in vitro. The class given is cell-based.
Text: as §1

Data set [3] has as its system ANKA strain of P. berghei. As to the kind of experiment: Single dose in vivo screen in P. berghei-infected NMRI mice. The conditions noted are these: for Survival (days) 30 mg/kg SSV po / Activity (%) 30 mg/kg SSV po: single 30 mg/kg po dose in SSV one day post-infection; for Activity (%) 30 mg/kg SSV po: percent reduction in parasitemia on day three post-infection; for Cures 30 mg/kg SSV po: single 30 mg/kg po dose in SSV, cure = survival to day 30 post-infection, groups of five mice. How it is done:
Activity of 1,2,4-trioxolanes against P. berghei in vivo. In the single dose in vivo screen, NMRI mice infected with the ANKA strain of P. berghei (groups of five mice) were treated one day post-infection with trioxolanes dissolved or suspended in standard suspending vehicle (SSV). The SSV consists of either 0.5% w/v carboxymethyl cellulose, 0.5% v/v benzyl alcohol, 0.4% v/v Tween 80, and 0.9% w/v sodium chloride in water or 0.5% hydroxypropylmethylcellulose 0.4% v/s Tween 80, and 0.5% v/v benzyl alcohol in water. […] Antimalarial activity was measured by percent reduction in parasitemia on day three post-infection and survival times compared to an untreated control group. Survival to day 30 post-infection is considered to be a cure in this model.

The test system of data set [4] is P. berghei. As to the kind of experiment: Prophylactic activity against P. berghei in vivo (mice dosed before infection). The conditions noted are these: for Cures 24 h prior to infection (30 mg/kg) / Activity (%) 24 h prior to infection (30 mg/kg): single 30 mg/kg oral dose 24 h prior to infection; for Cures 24 h prior to infection (30 mg/kg) / Cures 48 h prior to infection (100 mg/kg) / Cures 72 h prior to infection (100 mg/kg) / Cures 96 h prior to infection (100 mg/kg): n=5 mice; for Cures 48 h prior to infection (100 mg/kg) / Activity (%) 48 h prior to infection (100 mg/kg): single 100 mg/kg oral dose 48 h prior to infection; for Activity (%) 24 h prior to infection (30 mg/kg) / Activity (%) 48 h prior to infection (100 mg/kg): parasitemia day 3 post-infection; for Activity (%) 72 h prior to infection (100 mg/kg) / Cures 72 h prior to infection (100 mg/kg): single 100 mg/kg oral dose 72 h prior to infection; for Activity (%) 96 h prior to infection (100 mg/kg) / Cures 96 h prior to infection (100 mg/kg): single 100 mg/kg oral dose 96 h prior to infection. How it is done: All groups (n=5 mice per group) including an untreated control group, were infected at the same time and parasitemia was determined for each animal on day 3 post-infection and compared with the level of parasitemia in control animals.

A short description of data set [5]: Blood stability studies in freshly collected rat blood. The class given is in vitro ADME. Also on record: unit not given here. As for the experimental part: Blood stability studies: Compounds were incubated at 37° C. in freshly collected rat blood. At selected time points, duplicate aliquots of the whole blood were sampled, centrifuged and the plasma assayed for parent compound by LC-MS.

Data set [6] is described as follows: Pharmacokinetic studies in rats (oral). The format is in vivo, rat. The conditions noted are these: oral 10 mg/kg; for Oral Bioavailability at 10 mg/kg (%): relative to an IV dose. How it is done:
Pharmacokinetic studies in rats: Compounds were administered orally to rats (n=2) at a dose of 10 mg/kg in a suspension formulation containing hydroxypropylmethyl cellulose, Tween 80, benzyl alcohol, and water. […] Oral bioavailability for each compound was calculated relative to an IV dose for each compound in a suitable vehicle.

The test system of data set [7] is Embryonic red blood cells (RBCs). As to the kind of experiment: Rat whole embryo culture (WEC) model, embryotoxicity. From the text: Embryonic red blood cells (RBCs) were the primary target leading to anemia and subsequent hypoxia in embryonic tissues.
Longo, M.; Zanoncelli, S.; Manera, D.; Brughera, M.; Colombo, P.; Lansen J.; Mazué, G.; Gomes, M.; Taylor W. R. J.; Olliaro, P. Effects of the Antimalarial Drug Dihydroartemisinin (DHA) on Rat Embryos In Vitro. Repro. Tox. 2006, 21, 83-93.

[8] abbreviates: P. falciparum K1, in vitro, first value of K1/NF54 cell, read-out: IC50 (ng/ml) K1.
[9] abbreviates: P. falciparum NF54, in vitro, second value of K1/NF54 cell, read-out: IC50 (ng/ml) NF54.

As for `CO[C@H]1O[C@@H]2O[C@@]3(C)CC[C@H]4[C@H](C)CC[C@@H]([C@H]1C)[C@@]24OO3` [AM, artemether, reference compound], the IC50 in data set [1] (setting [8]) was determined as 0.74 ng/mL (≈ 0.00248 µM). The IC50 in data set [2] (setting [9]) was determined as 1.2 ng/mL (≈ 0.00402 µM). For the same molecule, in data set [3], the “Survival (days) 30 mg/kg SSV po” value amounted to 9.0 days, the “Activity (%) 30 mg/kg SSV po” value was 99.7% and the “Cures 30 mg/kg SSV po” value is 0/5.
As for `CCN(CC)CCCC(C)Nc1ccnc2cc(Cl)ccc12` (stereo not drawn) [CQ, chloroquine, reference compound], the IC50 in data set [1] (K1 / NF54, read-out: IC50 (ng/ml) K1) came to 62 ng/mL (≈ 0.194 µM). Further, the IC50 in data set [2] (K1 / NF54, read-out: IC50 (ng/ml) NF54) was found to be 5.1 ng/mL (≈ 0.0159 µM). Further, in data set [3], the “Survival (days) 30 mg/kg SSV po” value is given as 9.6 days and the “Cures 30 mg/kg SSV po” value is given as 0/5. Moreover, in data set [4], the “Cures 24 h prior to infection (30 mg/kg)” value is listed as 0/5 and the “Cures 48 h prior to infection (100 mg/kg)” value (“Cures 48 h prior” below) is 0/5.
Take `OC(c1cc(C(F)(F)F)nc2c(C(F)(F)F)cccc12)C1CCCCN1` (stereo not drawn) [MQ, mefloquine, reference compound]: in data set [1] (setting [8]), the IC50 turned out to be 3 ng/mL (≈ 0.00793 µM). The IC50 in data set [2] (setting [9]) came out at 5.8 ng/mL (≈ 0.0153 µM). In data set [3], the “Survival (days) 30 mg/kg SSV po” value was found to be 21.8 days, the “Activity (%) 30 mg/kg SSV po” value was 99.6% and the “Cures 30 mg/kg SSV po” value is reported as 0/5. Moreover, in data set [4], the “Cures 24 h prior to infection (30 mg/kg)” value is 3/5, the “Activity (%) 24 h prior to infection (30 mg/kg)” value (from here on “Activity (%) 24 h prior”) was over 99.9%, the “Cures 48 h prior” value is on record as 3/5 and the “Activity (%) 48 h prior to infection (100 mg/kg)” value (shortened to “Activity (%) 48 h prior”) is listed as 99.9%. Also, in data set [4], the “Activity (%) 72 h prior to infection (100 mg/kg)” value (“Activity (%) 72 h prior” for short) is reported as over 99.9% and the “Cures 72 h prior to infection (100 mg/kg)” value (from here on “Cures 72 h prior”) is recorded as 0/5.
Take `CC(C)(N)CNC(=O)C[C@H]1CC[C@]2(CC1)OO[C@]1(O2)C2CC3CC(C2)CC1C3` [OZ277, reference compound]: in data set [3], the “Survival (days) 30 mg/kg SSV po” value is 8.0 days, the “Activity (%) 30 mg/kg SSV po” value came out at 99.7% and the “Cures 30 mg/kg SSV po” value was 0/5. Moreover, in data set [4], the “Cures 24 h prior to infection (30 mg/kg)” value is given as 0/5, the “Activity (%) 24 h prior” value was determined as 13%, the “Cures 48 h prior” value is 0/5 and the “Activity (%) 48 h prior” value is on record as 0%. Also, the “Stability in Rat Blood (t1/2) at 37° C.” value in data set [5] is 0.8. Further, in data set [6], the “In Vivo Oral t1/2 at 10 mg/kg” value is listed as 1.6 h and the “Oral Bioavailability at 10 mg/kg (%)” value was found to be 19%. The “NOAEL for embryonic RBCs” value in data set [7] was determined as 0.2 µg/mL.
In the case of `CS(=O)(=O)O.c1cc(C2CCC3(CC2)OOC2(O3)C3CC4CC(C3)CC2C4)ccc1OCCN1CCOCC1` (stereo not drawn) [OZ439], in data set [4], the “Cures 24 h prior to infection (30 mg/kg)” value is recorded as 5/5, the “Activity (%) 24 h prior” value is 99.8%, the “Cures 48 h prior” value is 5/5 and the “Activity (%) 48 h prior” value is 99.6%. In data set [4], the “Activity (%) 72 h prior” value was 99.6%, the “Cures 72 h prior” value is 5/5, the “Activity (%) 96 h prior to infection (100 mg/kg)” value amounted to 99.5% and the “Cures 96 h prior to infection (100 mg/kg)” value was 5/5. For the same molecule, the “Oral Bioavailability at 10 mg/kg (%)” value in data set [6] is listed as 94%. The “NOAEL for embryonic RBCs” value in data set [7] is 5 µg/mL.
For `CS(=O)(=O)O.NC1CCC(Oc2ccc(C3CCC4(CC3)OOC3(O4)C4CC5CC(C4)CC3C5)cc2)CC1` (stereo not drawn) [OZ493], in data set [4], the “Cures 24 h prior to infection (30 mg/kg)” value was 3/5, the “Activity (%) 24 h prior” value is over 99.9%, the “Cures 48 h prior” value was 5/5 and the “Activity (%) 48 h prior” value amounted to 99%. Also, in data set [4], the “Activity (%) 72 h prior” value is on record as 99.9%, the “Cures 72 h prior” value was 5/5, the “Activity (%) 96 h prior to infection (100 mg/kg)” value is on record as 99.5% and the “Cures 96 h prior to infection (100 mg/kg)” value was 3/5. The “Stability in Rat Blood (t1/2) at 37° C.” value in data set [5] is over 17. In data set [6] (10 mg/kg), the “In Vivo Oral t1/2 at 10 mg/kg” value amounted to 7.7 h and the “Oral Bioavailability at 10 mg/kg (%)” value is on record as 51%. Besides, in data set [7], the “NOAEL for embryonic RBCs” value stood at 1 µg/mL.
Consider `C[C@@H]1CC[C@H]2[C@@H](C)C(=O)O[C@@H]3O[C@@]4(C)CC[C@@H]1[C@]32OO4` [artemisinin], for which, in data set [7], the “NOAEL for embryonic RBCs” value amounted to 0.1 µg/mL.
The same measure, in the same setting: for `C[C@H]1[C@@H](O)O[C@@H]2O[C@@]3(C)CC[C@H]4[C@H](C)CC[C@@H]1[C@@]24OO3` [dihydroartemisinin] the value was 0.01 µg/mL.

Values taken from patent US8067620B2, “Dispiro 1,2,4-trioxolane antimalarials” (Medicines for Malaria Venture MMV, priority 2005, dated 2011).
